Experimental data reported in publication PMC7002685, “Inhibition of vascular calcification by inositol phosphates derivatized with ethylene glycol oligomers” (Nature Communications, 2020).
Several values for one entry are separate records, joined by “and”; a condition that tells them apart may be missing. Identical values can stand only once. Like-named read-outs stand apart in the source and are kept apart here.

Columns and labels:
CPP2 = assay: Competitive 18F-NaF binding assay on CPPs; set-up: species or system human; details: for IC50: CPP2 20 µg Ca/mL, 18F-NaF 1 nM, 1 h RT, read-out: IC50 (reduction of 18F binding to CPP)
Procedure: A ^18F-NaF-based competitive binding assay was developed to indirectly assess the inhibitor affinity (IC50) to CPPs. The uptake mechanism of ^18F-NaF, a marker of micro-calcification activity by chemisorption onto hydroxyapatite crystals, is contingent on the rapid exchange of hydroxyl (OH^−) groups present on the hydroxyapatite surface (Ca5(PO4)3(OH)) by ^18F^− to form fluoroapatite (Ca5(PO4)3^18F)[34],[54].
Triplicate aliquots of CPP2s (20 µg Ca/mL) in 100 μL assay buffer (100 mM HBS, pH 7.4 (RT)) were incubated for 1 h at RT in the presence of increasing concentrations of compounds in 50 μL Milli-Q water and ^18F-NaF (1 nM) in 50 μL assay buffer, resulting in a total incubation volume of 200 μL (^18F-NaF was prepared using a FASTlab synthesizer (GE Healthcare, Little Chalfont, UK) and commercially available ^18F-NaF cassettes (GE Healthcare)). Maximum radiotracer binding was determined by incubating CPP2s with ^18F-NaF (1 nM) only. The reaction was terminated by rapid filtration through a SOLAμ™ SPE plate (HRP 2 mg/mL 96-well plate, 22 μm; Thermo Fisher Scientific). SPE individual column matrices were washed twice rapidly in assay buffer and radioactivity on the filters determined by an automatic gamma counter (Wizard2 Gamma Counter, Perkin Elmer, Waltham, MA, USA). […] IC50 is the concentration of […] that gives a response half way between the bottom and top parts of the curve. ^18F-NaF micro-PET/computed tomography (micro-PET/CT) was employed for ex vivo analysis of (OEG2)2-IP4’s engagement to target calcified human tissue explants, as described previously. […] Following incubations, samples were washed twice in 0.1 M PBS (1 min per wash) and mounted on a Petri dish for micro-PET/CT imaging (nanoPET/CT, Mediso, Budapest, Hungary). In total, seven samples from the femoral arteries of three patients with ischemic peripheral disease and three samples from native aortic valves of three patients undergoing valve replacement surgery were used. All samples were collected at the time of surgery and stored in 4% paraformaldehyde at RT until further use. All patients gave their written, informed consent. All procedures had local ethical approval (06/S0703/110, 12/WS/0227, 09/S0703/118, and 12/NW/0036). All studies were approved by East and West Scotland Research Ethics Committees, and all experiments were conducted according to the principles expressed in the Declaration of Helsinki.

primary human VSMCs [1] = assay: CPP2-induced VSMC calcification; type: cell-based; details: for VSMC calcium deposition, % of CPP2 control: CPP2 50 µg Ca/mL
Procedure: Macrophage accumulation and inflammation coincide with the initial phase of calcification. To this end, VSMCs and THP-1-derived macrophages were exposed to CPP2-supplemented medium. CPP2 prepared from human serum as described previously[61] (Supplementary Figs. 6 and 7), induced a pronounced VSMC monolayer calcification after 48 h, which was decreased by (OEG2)2-IP4 in a dose-dependent fashion, and the effect became significant at 10 µM (Fig. 3e). […] Both H2O2 (proxy for oxidative stress) and tumor necrosis factor-alpha (TNF-α) (proxy for inflammatory response) levels were assayed in the VSMC culture supernatants subsequent to CPP2 treatment with and without compounds[30]. However, no increase in H2O2 nor TNF-α compared to control could be detected in either assay. For the CPP-induced VSMC calcification assay (Fig. 3e) a roughly 10-fold higher concentration of (OEG2)2-IP4 was necessary to achieve similar activity as in the CaP-induced VSMC calcification assay (Fig. 3b). […] In the CaP assay, low inhibitor concentration may be sufficient to inhibit crystal nucleation, whereas for the CPP assay higher inhibitor concentrations may be needed to achieve sufficient particle stabilization by chemisorption of inhibitor onto CPPs. Similar results have been reported for hydrogen sulfide in the context of VC[62],[64]. […] An increase in the TNFα levels in the cell culture supernatants was not observed for (OEG2)2-IP4 with (Fig. 3h) and without (Supplementary Fig. 10) combined CPP2 treatment.
Primary human VSMCs (C-12533, PromoCell, Heidelberg, Germany) were cultured according to the manufacturer's guidelines in SMC-2 culture medium (C-22062, PromoCell) and used up to passage 7. For calcification experiments cells were seeded onto 24-well plates (TPP) at a density of 20,000 cells/well and left to attach for 48–72 h. Complete medium was M199 medium (31150022, Thermo Fischer Scientific), supplemented with 10% v/v FBS (10270106, Thermo Fisher Scientific, Waltham, MA), 1% v/v penicillin/streptomycin (15140122, Thermo Fisher Scientific), and 4 mM L-glutamine (25030024, Thermo Fisher Scientific)[80]. Calcification of cell monolayers was induced as described previously[81] by treatment with CPP2-supplemented (50 µg Ca/mL) medium with or without test compounds (1, 3, 10, 30, and 100 µM) at a volume of 1 mL/well for 48 h at 37 °C, 5% CO2. In a second assay, calcification was induced similar to previous experiments[56] by cell treatment with or without test compounds (0.01, 0.1, 1, 10, and 100 µM) in complete medium supplemented with calcium (2.7 mM) and phosphate (2.5 mM) (CaP medium) at a volume of 1 mL/well for 5 days, and treatment medium was replaced on alternate days.
(§1) Calcium deposition on cell monolayers was assessed qualitatively by staining for calcium with 2% w/v Alizarin Red S aqueous solution (pH 4.2) (05600, Fluka Analytical). Cell monolayers in 24-well plates were washed with PBS (10010015, Thermo Fischer), fixed in 10% v/v NBF in PBS (F8775, Sigma-Aldrich) for 45 min at RT, washed with milli-Q water, incubated for 3 min with 300 µL Alizarin Red S solution, washed with milli-Q, and images were acquired using a Axiovert 35 microscope (Zeiss, Carl Zeiss Microscopy GmbH, Jena, Germany) at ×100 magnification. Calcium quantitation was performed after washing cells with PBS and then decalcifying cell monolayers with 0.1 M HCl overnight at 4 °C. Acidic supernatants were centrifuged (10,000 × g, 4 °C, 10 min) and calcium content was assessed using the calcium colorimetric assay.

primary human VSMCs [2] = assay: CPP1-induced VSMC calcium deposition; type: cell-based; details: for VSMC calcium deposition (CPP2 = 100): CPP1 50 µg Ca/mL
Procedure: as §1

SMILES: COCCOCCO[C@@H]1[C@@H](OP(=O)(O)O)[C@H](OCCOCCOC)[C@@H](OP(=O)(O)O)[C@@H](OP(=O)(O)O)[C@H]1OP(=O)(O)O [(OEG2)2-IP4, 4,6-Di-O-(methoxy-diethyleneglycol)-myo-inositol-1,2,3,5-tetrakis(phosphate)]
- IC50 (CPP2): 0.81 µM
- IC90 (CPP2; as assessed in Fig. 2c, read-out: IC90 (concentration inhibiting 90% 18F-NaF binding)): 8.6 µM
- IC90 (CPP2; as used for tissue explants, read-out: IC90): 8.55 µM
- 18F-NaF percentage binding to CPP2 (CPP2; concentration 0.75 (unit not given), listed as INS-3001): 105.464% and 94.9958% and 112.003%
- 18F-NaF percentage binding to CPP2 (CPP2; concentration 2.5 (unit not given), listed as INS-3001): 107.219% and 104.697% and 115.819%
- 18F-NaF percentage binding to CPP2 (CPP2; concentration 7.5 (unit not given), listed as INS-3001): 94.1661% and 101.068% and 121.959%
- 18F-NaF percentage binding to CPP2 (CPP2; concentration 25 (unit not given), listed as INS-3001): 108.675% and 100.128% and 123.491%
- 18F-NaF percentage binding to CPP2 (CPP2; concentration 75 (unit not given), listed as INS-3001): 113.007% and 98.9202% and 111.871%
- 18F-NaF percentage binding to CPP2 (CPP2; concentration 250 (unit not given), listed as INS-3001): 85.5215% and 95.9196% and 111.875%
- 18F-NaF percentage binding to CPP2 (CPP2; concentration 750 (unit not given), listed as INS-3001): 70.0481% and 89.1189% and 102.542%
- 18F-NaF percentage binding to CPP2 (CPP2; concentration 1750 (unit not given), listed as INS-3001): 31.7703% and 41.2562% and 38.4419%
- 18F-NaF percentage binding to CPP2 (CPP2; concentration 7500 (unit not given), listed as INS-3001): 12.1628% and 10.8683% and 17.508%
- 18F-NaF percentage binding to CPP2 (CPP2; concentration 25000 (unit not given), listed as INS-3001): 16.4031% and 18.0245% and 30.0027%
- 18F-NaF percentage binding to CPP2 (CPP2; concentration 75000 (unit not given), listed as INS-3001): 21.5957% and 22.2508% and 37.2218%
- 18F-NaF percentage binding to CPP2 (CPP2; concentration 250000 (unit not given), listed as INS-3001): 17.9597% and 19.9827% and 35.4457%
- 18F-NaF percentage binding to CPP2 (CPP2; concentration 750000 (unit not given), replicates Fig. 2c, listed as INS-3001): 28.6563% and 25.7698% and 36.7738%
- fold higher concentration necessary in CPP-induced vs CaP-induced VSMC calcification assay (primary human VSMCs [1]): roughly 10 fold
- VSMC calcium deposition, % of CPP2 control (primary human VSMCs [1]; 1 µM, 48 h, replicates Fig. 3e): 88.4113% and 80.5453% and 68.3456% and 69.0785%
- VSMC calcium deposition, % of CPP2 control (primary human VSMCs [1]; 3 µM, 48 h): 92.4907% and 73.6279% and 53.9051% and 56.3804%
- concentration at which decrease of CPP2-induced calcification became significant (primary human VSMCs [1]; 48 h): 10 µM
- VSMC calcium deposition (CPP2 = 100) (primary human VSMCs [2]; 1 µM, replicates Fig. 3g): 54.74% and 45.04% and 38.43%
- VSMC calcium deposition (CPP2 = 100) (primary human VSMCs [2]; 10 µM): 14.07% and 5.29% and 7.26%
- VSMC calcium deposition (CPP2 = 100) (primary human VSMCs [2]; 30 µM): 8.51% and 7.29% and 1.56%
- VSMC calcium deposition (CPP2 = 100) (primary human VSMCs [2]; 100 µM): 1.78% and 6.75% and 5.25%
- concentration from which calcium deposition was reduced to the level of control (primary human VSMCs [2]; CPP1): ≥ 10 µM

SMILES: O=P(O)(O)O[C@H]1[C@H](OP(=O)(O)O)[C@@H](OP(=O)(O)O)[C@H](OP(=O)(O)O)[C@@H](OP(=O)(O)O)[C@H]1OP(=O)(O)O [IP6, myo-Inositol hexakisphosphate]
- IC50 (CPP2): 3.96 µM
- 18F-NaF percentage binding to CPP2 (CPP2; concentration 0.75 (unit not given)): 94.1339% and 121.154% and 102.128%
- 18F-NaF percentage binding to CPP2 (CPP2; concentration 2.5 (unit not given)): 93.0288% and 114.326% and 101.486%
- 18F-NaF percentage binding to CPP2 (CPP2; concentration 7.5 (unit not given)): 92.4582% and 110.79% and 97.129%
- 18F-NaF percentage binding to CPP2 (CPP2; concentration 25 (unit not given)): 95.6995% and 114.564% and 112.333%
- 18F-NaF percentage binding to CPP2 (CPP2; concentration 75 (unit not given)): 85.0945% and 107.18% and 113.212%
- 18F-NaF percentage binding to CPP2 (CPP2; concentration 250 (unit not given)): 87.0585% and 108.409% and 103.034%
- 18F-NaF percentage binding to CPP2 (CPP2; concentration 750 (unit not given)): 87.2718% and 107.684% and 96.5293%
- 18F-NaF percentage binding to CPP2 (CPP2; concentration 1750 (unit not given)): 100.593% and 62.29% and 66.5713%
- 18F-NaF percentage binding to CPP2 (CPP2; concentration 2500 (unit not given)): 85.021% and 85.5383% and 72.51%
- 18F-NaF percentage binding to CPP2 (CPP2; concentration 7500 (unit not given)): 76.4111% and 59.8209% and 66.7993%
- 18F-NaF percentage binding to CPP2 (CPP2; concentration 25000 (unit not given)): 66.3738% and 68.2115% and 51.6692%
- 18F-NaF percentage binding to CPP2 (CPP2; concentration 75000 (unit not given)): 48.1457% and 55.4993% and 51.2901%
- 18F-NaF percentage binding to CPP2 (CPP2; concentration 250000 (unit not given)): 52.9543% and 43.7782% and 27.6001%
- 18F-NaF percentage binding to CPP2 (CPP2; concentration 750000 (unit not given), replicates Fig. 2c): 50.6666% and 38.054% and 33.4917%
- VSMC calcium deposition, % of CPP2 control (primary human VSMCs [1]; 1 µM, 48 h, replicates Fig. 3e): 77.8896% and 82.8838% and 86.0538% and 91.73%
- VSMC calcium deposition, % of CPP2 control (primary human VSMCs [1]; 3 µM, 48 h): 95.5105% and 90.2183% and 79.3785% and 87.2842%
- VSMC calcium deposition, % of CPP2 control (primary human VSMCs [1]; 10 µM, 48 h): 37.8415%
- VSMC calcium deposition, % of CPP2 control (primary human VSMCs [1]; 30 µM, 48 h): 57.6847% and 47.1535% and 71.7458% and 75.8811%
- VSMC calcium deposition, % of CPP2 control (primary human VSMCs [1]; 100 µM, 48 h): 79.2544% and 65.4345% and 85.4719%
- VSMC calcium deposition (CPP2 = 100) (primary human VSMCs [2]; 3 µM): 82.15% and 53.35% and 45.33%
- VSMC calcium deposition (CPP2 = 100) (primary human VSMCs [2]; 100 µM): 138.44% and 188.13% and 99%
